Laboratory results taken from PubChem BioAssay AID328 (DTP/NCI, 2004).
Values joined by “and” are separate entries in the source; they are usually repeats but may differ in a detail not shown here. Equal values may be shown once. Toxic doses and inconclusive results are not listed.

Test system: BDF1 mice, P388 leukemia ip, median survival T/C
Test: NCI In Vivo Anticancer Drug Screen. Data for tumor model P388 Leukemia (intraperitoneal) in B6D2F1 (BDF1) mice
Details: endpoint: median survival time, higher = longer survival
Procedure, shortened: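 Vehicle-dosed animals serve as the reference; survival of compound-dosed, tumour-implanted mice is divided by it.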

[1] = dose: 50.0 mg/kg/injection, schedule: Q01DX009 (ip), vehicle: saline with Tween-80
[2] = dose: 100.0 mg/kg/injection, schedule: Q01DX009 (ip), vehicle: saline with Tween-80
[3] = dose: 200.0 mg/kg/injection, schedule: Q01DX009 (ip), vehicle: saline with Tween-80

## O=C(O)c1ccc(N2C(=O)C=CC2=O)cc1 (tested in a mixture with another compound)
dose: 0.39 mg/kg/injection, schedule: Q01DX009 (ip), vehicle: Klucel (hydroxypropylcellulose) (HPC)
  T/C: 95 % of control
dose: 0.78 mg/kg/injection, schedule: Q01DX009 (ip), vehicle: Klucel (hydroxypropylcellulose) (HPC)
  T/C: 108 % of control
dose: 1.25 mg/kg/injection, schedule: Q01DX001 (ip), vehicle: Klucel (hydroxypropylcellulose) (HPC)
  T/C: 100 % of control
dose: 1.56 mg/kg/injection, schedule: Q01DX009 (ip), vehicle: Klucel (hydroxypropylcellulose) (HPC)
  T/C: 95 % of control
dose: 2.5 mg/kg/injection, schedule: Q01DX001 (ip), vehicle: Klucel (hydroxypropylcellulose) (HPC)
  T/C: 104 % of control
dose: 3.12 mg/kg/injection, schedule: Q01DX009 (ip), vehicle: Klucel (hydroxypropylcellulose) (HPC)
  T/C: 110 % of control
dose: 4.6 mg/kg/injection, schedule: Q04DX003 (ip), vehicle: Klucel (hydroxypropylcellulose) (HPC)
  T/C: 95 % of control
dose: 5.0 mg/kg/injection, schedule: Q01DX001 (ip), vehicle: Klucel (hydroxypropylcellulose) (HPC)
  T/C: 104 % of control
dose: 7.0 mg/kg/injection, schedule: Q04DX003 (ip), vehicle: Klucel (hydroxypropylcellulose) (HPC)
  T/C: 95 % of control
dose: 10.0 mg/kg/injection, schedule: Q04DX003 (ip), vehicle: Klucel (hydroxypropylcellulose) (HPC)
  T/C: 100 % of control

## CC(/C=C/c1ccccc1)=Nc1ccc(C)cc1
dose: 100.0 mg/kg/injection, schedule: Q04DX003 (ip), vehicle: saline with Tween-80
  T/C: 104 % of control
dose: 200.0 mg/kg/injection, schedule: Q04DX003 (ip), vehicle: saline with Tween-80
  T/C: 101 % of control
dose: 400.0 mg/kg/injection, schedule: Q04DX003 (ip), vehicle: saline with Tween-80
  T/C: 104 % of control

## O=C(O)/C(Cl)=C(Cl)\C=N\Nc1ccccc1
dose: 200.0 mg/kg/injection, schedule: Q04DX002 (ip), vehicle: saline with Tween-80
  T/C: 98 % of control

## CC(CCl)N(CCCl)Cc1cccc(Nc2ncnc3nc[nH]c23)c1 (stereo not drawn)
dose: 0.8 mg/kg/injection, schedule: Q01DX009 (ip), vehicle: saline
  T/C: 152 % of control
dose: 1.5 mg/kg/injection, schedule: Q01DX009 (ip), vehicle: saline
  T/C: 154 % of control
dose: 2.0 mg/kg/injection, schedule: Q01DX009 (ip), vehicle: saline
  T/C: 164 % of control
dose: 2.5 mg/kg/injection, schedule: Q01DX009 (ip), vehicle: saline
  T/C: 185 % of control
dose: 3.0 mg/kg/injection, schedule: Q01DX009 (ip), vehicle: saline
  T/C: 160 % of control
dose: 5.0 mg/kg/injection, schedule: Q01DX009 (ip), vehicle: saline
  T/C: 175 % of control
dose: 10.0 mg/kg/injection, schedule: Q01DX009 (ip), vehicle: saline
  T/C: 180 % of control
dose: 10.0 mg/kg/injection, schedule: Q04DX003 (ip), vehicle: saline
  T/C: 86 % of control

## C1CCC2(CC1)OCCO2
dose: 25.0 mg/kg/injection, schedule: Q01DX009 (ip), vehicle: saline with Tween-80
  T/C: 87 % of control
[1]
  T/C: 97 % of control
[2]
  T/C: 100 % of control
[3]
  T/C: 106 % of control

## CC(=O)Oc1ccc(OC(C)=O)c2c1CC(C)=C(C)C2
dose: 50.0 mg/kg/injection, schedule: Q01DX009 (ip), vehicle: saline
  T/C: 107 % of control
dose: 100.0 mg/kg/injection, schedule: Q01DX009 (ip), vehicle: saline
  T/C: 113 % of control
dose: 100.0 mg/kg/injection, schedule: Q04DX003 (ip), vehicle: saline
  T/C: 109 % of control
dose: 200.0 mg/kg/injection, schedule: Q01DX009 (ip), vehicle: saline
  T/C: 109 % of control
dose: 200.0 mg/kg/injection, schedule: Q04DX003 (ip), vehicle: saline
  T/C: 116 % of control
dose: 400.0 mg/kg/injection, schedule: Q01DX009 (ip), vehicle: saline
  T/C: 118 % of control

## COc1ccc(OC)c2nc3c(=O)[nH]c(=O)[nH]c3nc12
dose: 55.0 mg/kg/injection, schedule: Q01DX010 (ip), vehicle: water
  T/C: 100 % of control
dose: 80.0 mg/kg/injection, schedule: Q01DX010 (ip), vehicle: water
  T/C: 109 % of control
dose: 120.0 mg/kg/injection, schedule: Q01DX010 (ip), vehicle: water
  T/C: 109 % of control
dose: 180.0 mg/kg/injection, schedule: Q01DX010 (ip), vehicle: water
  T/C: 118 % of control

## CC(=O)CC(C)=O.CC(=O)CC(C)=O.[NH-]C1CCCCC1.[NH-]C1CCCCC1.[Ni+2]
dose: 19.0 mg/kg/injection, schedule: Q04DX003 (ip), vehicle: saline with Tween-80
  T/C: 104 % of control
dose: 20.0 mg/kg/injection, schedule: Q04DX003 (ip), vehicle: saline
  T/C: 100 % of control
dose: 37.5 mg/kg/injection, schedule: Q04DX003 (ip), vehicle: saline with Tween-80
  T/C: 118 % of control
dose: 40.0 mg/kg/injection, schedule: Q04DX003 (ip), vehicle: saline
  T/C: 112 % of control

## CN(C)C(c1ccccc1)C(CBr)C(=O)c1ccc(Br)cc1 (stereo not drawn)
dose: 6.25 mg/kg/injection, schedule: Q01DX009 (ip), vehicle: saline
  T/C: 110 % of control
dose: 16.5 mg/kg/injection, schedule: Q01DX009 (ip), vehicle: saline
  T/C: 109 % of control and 116 % of control
dose: 25.0 mg/kg/injection, schedule: Q01DX009 (ip), vehicle: saline
  T/C: 100 % of control and 118 % of control
dose: 27.5 mg/kg/injection, schedule: Q04DX003 (ip), vehicle: saline
  T/C: 104 % of control
dose: 37.5 mg/kg/injection, schedule: Q01DX009 (ip), vehicle: saline
  T/C: 113 % of control and 120 % of control
dose: 55.0 mg/kg/injection, schedule: Q04DX003 (ip), vehicle: saline
  T/C: 100 % of control

## COc1ccc(CC(=O)NCCc2ccc3cc(OC)c(OC)cc3c2)cc1OC
[2]
  T/C: 95 % of control
[3]
  T/C: 95 % of control
dose: 400.0 mg/kg/injection, schedule: Q01DX009 (ip), vehicle: saline with Tween-80
  T/C: 91 % of control

## Oc1ccccc1C1N=NC2=C(CCCC2)N1O (stereo not drawn)
dose: 50.0 mg/kg/injection, schedule: Q01DX009 (ip), vehicle: Klucel (hydroxypropylcellulose) (HPC)
  T/C: 99 % of control
dose: 100.0 mg/kg/injection, schedule: Q01DX009 (ip), vehicle: Klucel (hydroxypropylcellulose) (HPC)
  T/C: 93 % of control

## Cc1ncc2n1C=CN(C(=O)c1ccc([N+](=O)[O-])cc1)C2O (stereo not drawn)
dose: 50.0 mg/kg/injection, schedule: Q01DX009 (ip), vehicle: water
  T/C: 103 % of control
dose: 100.0 mg/kg/injection, schedule: Q01DX009 (ip), vehicle: water
  T/C: 94 % of control
dose: 100.0 mg/kg/injection, schedule: Q04DX003 (ip), vehicle: water
  T/C: 102 % of control
dose: 200.0 mg/kg/injection, schedule: Q01DX009 (ip), vehicle: water
  T/C: 93 % of control
dose: 200.0 mg/kg/injection, schedule: Q04DX003 (ip), vehicle: water
  T/C: 93 % of control
dose: 400.0 mg/kg/injection, schedule: Q01DX009 (ip), vehicle: water
  T/C: 94 % of control
dose: 400.0 mg/kg/injection, schedule: Q04DX003 (ip), vehicle: water
  T/C: 98 % of control

## N#Cc1cccc(CC(O)(c2ccccc2)c2cccc3ccccc23)c1 (stereo not drawn)
[1]
  T/C: 103 % of control
[2]
  T/C: 97 % of control
[3]
  T/C: 99 % of control

## CC(=O)N(C)c1ccc(Nc2cc(C)[nH]c3ccc4ncnc4c23)cc1
dose: 50.0 mg/kg/injection, schedule: Q04DX002 (ip), vehicle: saline
  T/C: 158 % of control
dose: 100.0 mg/kg/injection, schedule: Q04DX002 (ip), vehicle: saline with Tween-80
  T/C: 181 % of control
dose: 100.0 mg/kg/injection, schedule: Q04DX002 (ip), vehicle: saline
  T/C: 181 % of control

## C/C=C1\C[N+]2(C)CCc3c([nH]c4ccccc34)C2CC1Cc1nccc2c1[nH]c1ccccc12 (stereo not drawn)
dose: 1.0 mg/kg/injection, schedule: Q04DX003 (ip), vehicle: saline
  T/C: 107 % of control
dose: 2.0 mg/kg/injection, schedule: Q04DX003 (ip), vehicle: saline
  T/C: 98 % of control
dose: 4.0 mg/kg/injection, schedule: Q04DX003 (ip), vehicle: saline
  T/C: 98 % of control
dose: 6.0 mg/kg/injection, schedule: Q04DX003 (ip), vehicle: saline
  T/C: 102 % of control
dose: 12.0 mg/kg/injection, schedule: Q04DX003 (ip), vehicle: saline
  T/C: 113 % of control
dose: 24.0 mg/kg/injection, schedule: Q04DX003 (ip), vehicle: saline
  T/C: 118 % of control
dose: 48.0 mg/kg/injection, schedule: Q04DX003 (ip), vehicle: saline
  T/C: 110 % of control

## N#CC1(C#N)C(c2ccccc2)C1(C#N)C#N
dose: 2.0 mg/kg/injection, schedule: Q01DX009 (ip), vehicle: saline with Tween-80
  T/C: 120 % of control
dose: 2.66 mg/kg/injection, schedule: Q01DX009 (ip), vehicle: saline with Tween-80
  T/C: 122 % of control
dose: 2.66 mg/kg/injection, schedule: Q01DX009 (ip), vehicle: saline
  T/C: 109 % of control and 120 % of control
dose: 4.0 mg/kg/injection, schedule: Q01DX009 (ip), vehicle: saline
  T/C: 108 % of control
dose: 6.0 mg/kg/injection, schedule: Q01DX009 (ip), vehicle: saline
  T/C: 118 % of control
dose: 6.25 mg/kg/injection, schedule: Q01DX009 (ip), vehicle: saline with Tween-80
  T/C: 115 % of control
dose: 8.0 mg/kg/injection, schedule: Q01DX009 (ip), vehicle: saline with Tween-80
  T/C: 120 % of control
